Test results from US10696615B2, “Prenylated hydroxystilbenes” (The University of Sydney, priority 2011, dated 2020).

What was measured:
Format in all cases: cell-based, human
MDA-MB-468 = assay: NCI in vitro cancer screen, Breast Cancer; conditions: MDA-MB-468
MCF7 = assay: NCI in vitro cancer screen, Breast Cancer; conditions: MCF7
CCRF-CEM = assay: NCI in vitro cancer screen, Leukemia
PC-3 = assay: NCI in vitro cancer screen, Prostate Cancer; conditions: PC-3
ACHN = assay: NCI in vitro cancer screen, Renal Cancer
SK-MEL-2 = assay: NCI in vitro cancer screen, Melanoma; conditions: SK-MEL-2
SF-295 = assay: NCI in vitro cancer screen, CNS Cancer; conditions: SF-295
SK-MEL-28 = assay: NCI in vitro cancer screen, Melanoma; conditions: SK-MEL-28
HT29 = assay: NCI in vitro cancer screen, Colon Cancer; conditions: HT29
SK-MEL-5 = assay: NCI in vitro cancer screen, Melanoma; conditions: SK-MEL-5
U251 = assay: NCI in vitro cancer screen, CNS Cancer; conditions: U251
OVCAR-8 = assay: NCI in vitro cancer screen, Ovarian Cancer; conditions: OVCAR-8
T-47D = assay: NCI in vitro cancer screen, Breast Cancer
RXF-393 = assay: NCI in vitro cancer screen, Renal Cancer; conditions: RXF-393
TK-10 = assay: NCI in vitro cancer screen, Renal Cancer; conditions: TK-10
SK-OV-3 = assay: NCI in vitro cancer screen, Ovarian Cancer; conditions: SK-OV-3
SNB-19 = assay: NCI in vitro cancer screen, CNS Cancer; conditions: SNB-19
NCI-H322M = assay: NCI in vitro cancer screen, Non-Small Cell Lung Cancer
SW-620 = assay: NCI in vitro cancer screen, Colon Cancer; conditions: SW-620
UACC-62 = assay: NCI in vitro cancer screen, Melanoma; conditions: UACC-62
DU-145 = assay: NCI in vitro cancer screen, Prostate Cancer; conditions: DU-145
SNB-75 = assay: NCI in vitro cancer screen, CNS Cancer; conditions: SNB-75
UO-31 = assay: NCI in vitro cancer screen, Renal Cancer; conditions: UO-31
K-562 = assay: NCI in vitro cancer screen, Leukemia; conditions: K-562
OVCAR-5 = assay: NCI in vitro cancer screen, Ovarian Cancer; conditions: OVCAR-5
A549/ATCC = assay: NCI in vitro cancer screen, Non-Small Cell Lung Cancer
OVCAR-3 = assay: NCI in vitro cancer screen, Ovarian Cancer; conditions: OVCAR-3
NCI-H460 = assay: NCI in vitro cancer screen, Non-Small Cell Lung Cancer; conditions: NCI-H460
NCI-H23 = assay: as above; conditions: NCI-H23
KM12 = assay: NCI in vitro cancer screen, Colon Cancer; conditions: KM12
MDA-MB-435 = assay: NCI in vitro cancer screen, Melanoma; conditions: MDA-MB-435
[1] = Homo sapiens, read-out: LC50 (the source's name)

`CC(C)=CCc1c(O)cc(/C=C/c2ccc(O)c(O)c2)c(CC=C(C)C)c1O` [USYDS7, (E)-2,4-di(3-methyl-2-buten-1-yl)-3,3′,4′,5-tetrahydroxystilbene] was tested, and the GI50 (MDA-MB-468; Homo sapiens) was 2.12 µM, the CC50 (MDA-MB-468; [1]) was 13.9 µM and the TGI (MDA-MB-468) was 4.84 µM. It also gave a GI50 (MCF7; Homo sapiens) of 2.1 µM, a CC50 (MCF7; [1]) of 57.9 µM and a TGI (MCF7) of 12.0 µM. For the same compound, the TGI (CCRF-CEM) was 8.48 µM, the GI50 (CCRF-CEM; Homo sapiens) was 2.73 µM and the CC50 (CCRF-CEM; [1]) was 71.2 µM. The GI50 (PC-3; Homo sapiens) was 2.02 µM, the CC50 (PC-3; [1]) was 11.3 µM and the TGI (PC-3) was 4.57 µM. For the same compound, the TGI (ACHN) was 9.12 µM, the GI50 (ACHN; Homo sapiens) was 2.58 µM and the CC50 (ACHN; [1]) was 37.6 µM. It also gave a GI50 (SK-MEL-2; Homo sapiens) of 3.2 µM, an LC50 (SK-MEL-2; Homo sapiens) of 42.9 µM and a TGI (SK-MEL-2) of 7.82 µM. The GI50 (SF-295; Homo sapiens) was 3.37 µM, the CC50 (SF-295; [1]) was 44.6 µM and the TGI (SF-295) was 11.4 µM. The GI50 (SK-MEL-28; Homo sapiens) was 3.65 µM, the LC50 (SK-MEL-28; Homo sapiens) was 36.7 µM and the TGI (SK-MEL-28) was 11.8 µM. It also gave a TGI (HT29) of 10.8 µM, a GI50 (HT29; Homo sapiens, HT-29) of 3.64 µM and a CC50 (HT29; Homo sapiens, HT-29, read-out: LC50 (the source's name)) of 45.8 µM. For the same compound, the GI50 (SK-MEL-5; Homo sapiens) was 1.8 µM, the CC50 (SK-MEL-5; [1]) was 7.54 µM and the TGI (SK-MEL-5) was 3.68 µM. The GI50 (U251; Homo sapiens, U-251) was 1.49 µM, the CC50 (U251; Homo sapiens, U-251, read-out: LC50 (the source's name)) was 5.74 µM and the TGI (U251) was 2.93 µM. For the same compound, the GI50 (OVCAR-8; Homo sapiens) was 1.68 µM, the CC50 (OVCAR-8; [1]) was 7.95 µM and the TGI (OVCAR-8) was 3.65 µM. It also gave a TGI (T-47D) of 6.09 µM, a GI50 (T-47D; Homo sapiens, T47D) of 1.88 µM and a CC50 (T-47D; Homo sapiens, T47D, read-out: LC50 (the source's name)) of 43.5 µM. The GI50 (RXF-393; Homo sapiens) was 1.53 µM, the CC50 (RXF-393; [1]) was 6.8 µM and the TGI (RXF-393) was 3.23 µM. For the same compound, the GI50 (TK-10; Homo sapiens) was 3.62 µM, the LC50 (TK-10; Homo sapiens) was 34.3 µM and the TGI (TK-10) was 11.2 µM. The GI50 (SK-OV-3; Homo sapiens) was 5.98 µM, the CC50 (SK-OV-3; [1]) was 46.5 µM and the TGI (SK-OV-3) was 19.4 µM. For the same compound, the GI50 (SNB-19; Homo sapiens) was 2.8 µM, the CC50 (SNB-19; [1]) was 39.9 µM and the TGI (SNB-19) was 8.64 µM. It also gave a TGI (NCI-H322M) of 18.1 µM, a GI50 (NCI-H322M; Homo sapiens) of 5.29 µM and an LC50 (50% lethal concentration) (NCI-H322M; Homo sapiens) of 44.7 µM. For the same compound, the GI50 (SW-620; Homo sapiens) was 1.58 µM, the CC50 (SW-620; [1]) was 6.42 µM and the TGI (SW-620) was 3.19 µM. For the same compound, the GI50 (UACC-62; Homo sapiens) was 2.8 µM, the CC50 (UACC-62; [1]) was 31.5 µM and the TGI (UACC-62) was 7.84 µM. It also gave a TGI (DU-145) of 7.62 µM, a GI50 (DU-145; Homo sapiens) of 2.65 µM and a CC50 (DU-145; [1]) of 28.3 µM. For the same compound, the GI50 (SNB-75; Homo sapiens) was 2.98 µM, the CC50 (SNB-75; [1]) was 49.1 µM and the TGI (SNB-75) was 12.8 µM. It also gave a GI50 (UO-31; Homo sapiens) of 1.6 µM, a CC50 (UO-31; [1]) of 7.46 µM and a TGI (UO-31) of 3.46 µM. The GI50 (K-562; Homo sapiens, K562) was 2.14 µM, the CC50 (K-562; Homo sapiens, K562, read-out: LC50 (the source's name)) was 17.4 µM and the TGI (K-562) was 4.78 µM. It also gave a GI50 (OVCAR-5; Homo sapiens) of 3.04 µM, a CC50 (OVCAR-5; [1]) of 39 µM and a TGI (OVCAR-5) of 11.6 µM. For the same compound, the TGI (A549/ATCC) was 4.06 µM, the GI50 (A549/ATCC; Homo sapiens) was 1.88 µM and the CC50 (A549/ATCC; [1]) was 8.78 µM. It also gave a GI50 (OVCAR-3; Homo sapiens) of 1.82 µM, a CC50 (OVCAR-3; [1]) of 6.19 µM and a TGI (OVCAR-3) of 3.36 µM. The GI50 (NCI-H460; Homo sapiens) was 1.64 µM, the CC50 (NCI-H460; [1]) was 6.33 µM and the TGI (NCI-H460) was 3.22 µM. For the same compound, the GI50 (NCI-H23; Homo sapiens) was 1.81 µM, the LC50 (NCI-H23; Homo sapiens) was 29.5 µM and the TGI (NCI-H23) was 5.22 µM. It also gave a GI50 (KM12; Homo sapiens) of 1.93 µM, a CC50 (KM12; [1]) of 7.79 µM and a TGI (KM12) of 3.88 µM. It also gave a GI50 (MDA-MB-435; Homo sapiens) of 2.29 µM, a CC50 (MDA-MB-435; [1]) of 31.7 µM and a TGI (MDA-MB-435) of 6.47 µM.
